# Source: patent EP0739894A1, “THIAZOLINE DERIVATIVE” (TAISHO PHARMACEUTICAL CO. LTD, priority 1994, dated 1995)
# Tests used:
# blood platelet = experiment: Human in vitro blood platelet aggregation inhibition test (ADP-induced, PRP); format: cell-based; details: 0.05 h
# Method: Citrated blood (the volume ratio of 3.13 % sodium citrate solution and blood is 1:9) was collected from the cubital vein of a healthy human who had not received any drugs known to affect the function of blood platelet within 2 weeks prior to starting the test, and centrifuged at 120 x g at room temperature for 15 minutes. The resulting supernatant was separated to give platelet rich plasma (PRP), the remaining precipitate was further centrifuged at 1500 x g for 10 minutes, and the resulting supernatant was separated to give platelet poor plasma (PPP).
# The blood platelet counts of PRP were adjusted to 50 ∼ 60 × 10^4/µl by diluting with PPP.
# Blood platelet aggregation was determined according to the method of Born G.V.R., [Nature, vol. 194, page 927 (1962)] using adenosine diphosphate (produced by Sigma Co.; hereinafter referred to as "ADP") as an aggregation-inducing substance. That is, a solution of the compound of Formula (I) as a test drug in dimethyl sulfoxide was adjusted to the desired concentration with a physiological saline solution. 25 µl of the solution was added to 250 µl of PRP and incubated at 37°C for 3 minutes, and 25 µl of ADP (final concentration : 7 µM) was added thereto. […]
# [1] = Solubility test in Britton-Robinson buffered solution, HPLC; format: physicochemical; details: britton-robinson buffer, aqueous buffer; Britton - Robinson broad buffered solution pH 4, ionic strength 0.125, 25°C
# Method: (§1) Solubility and stability tests were carried out according to the method of R.H. Blythe et al [J. Pharm. Sci., vol. 66, page 785 (1977)].
# A Britton - Robinson broad buffered solution (pH 4) was prepared, and adjusted to 0.125 of the ionic strength by adding sodium chloride. An excess amount of Compound 3 was added to the resulting solution and dissolved with heating, and then after stirring at 25°C for a desired time, the solubility which became constant was measured by HPLC under the following conditions. • Column : TSK-Gel, ODS-80TM, 4φ × 150 mm • Column temperature : 50°C • Mobile phase : Water : CH3CN : SDS : phosphoric acid = 500:500:3:1 • Detection wave length : 246 nm • Flow rate : 1.0 ml/min. • Injection amount : 10 µl
# [2] = Stability test in phosphate buffer, decomposition rate constants extrapolated to 25°C; format: physicochemical; details: phosphate buffer adjusted to pH 4.0, 20 µg/ml; estimated from rate constants of decomposition at 100°C and 65°C
# Method: as §1
# A phosphate buffer (pH 7) (0.1M disodium hydrogenphosphate + 0.1M sodium dihydrogenphosphate) was prepared, and adjusted to pH 4.0 with phosphoric acid. Compound 3 was added to the buffered solution at the concentration of 20 µg/ml, and which was used as a test solution. The content of Compound 3 in the test solution stored at 100°C and 65°C respectively was determined, and the rate constant of decomposition at each temperature was calculated. As a result, it was estimated that the term for remaining a 95% content of Compound 3 at 25°C was 17.6 years.
smiles,measurement,setting,value
"Cc1c(C(=O)NCCC(=O)O)sc(=NC(=O)c2ccc(C(=N)N3CCN(c4ccccn4)CC3)cc2)n1C [Compound 3, N-(2-Carboxyethyl)-2-{4-[4-(pyridin-2-yl)piperadinylimidoyl]benzoylimino}-3,4-dimethyl-3H-thiazoline-5-carboxamide]",IC50,blood platelet,21.5 nM
same,solubility,[1],4300 µg/mL
same,term for remaining a 95% content at 25°C,[2],17.6 years
